Like-named read-outs stand apart in the source and are kept apart here. Where a SMILES comes first, the peptide text is derived from it. Bridges are numbered along the chain shown (N, C = ends). [ ]: non-standard residue; d: D form. The star is where a group is joined. Acetyl(4-DOTA-piperazinyl) = O=C(O)CN1CCN(CC(=O)O)CCN(CC(=O)N2CCN(CC(=O)*)CC2)CCN(CC(=O)O)CC1; DOTA(In) = O=C1CN2CCN3CCN(CC(=O)*)CCN(CC2)CC(=O)[O][In]([O]1)[O]C(=O)C3; DOTA = O=C(O)CN1CCN(CC(=O)O)CCN(CC(=O)*)CCN(CC(=O)O)CC1; Phe(4-Cl) = N[C@@H](Cc1ccc(Cl)cc1)C(=O)O; Pro(cis-4-F) = O=C(O)[C@@H]1C[C@H](F)CN1; Pro(4S-NH2) = N[C@@H]1CN[C@H](C(=O)O)C1; Hyp = O=C(O)[C@@H]1C[C@@H](O)CN1; 3Pal = N[C@@H](Cc1cccnc1)C(=O)O; Pentanoyl(4-Me) = CC(C)CCC(=O)*; Cit = NC(=O)NCCC[C@H](N)C(=O)O; αMeL = CC(C)C[C@](C)(N)C(=O)O; Butoxycarbonyl = CCCCOC(=O)*; Chg = N[C@H](C(=O)O)C1CCCCC1; Ac6c = NC1(C(=O)O)CCCCC1; Nva = CCC[C@H](N)C(=O)O; Pentanoyl = CCCCC(=O)*; Aib = CC(C)(N)C(=O)O; Butyryl = CCCC(=O)*
What was measured:
[1] = molecular target: T1, human uPAR (uPAR-Fc) (Homo sapiens, UniProt Q03405); experiment: Surface plasmon resonance (SPR) assay, single cycle kinetics; type: binding; details: pKD category for uPAR SPR activity assay, uPAR-Fc on Protein A-Chip, 25°C; for Kd: read-out: pKD CAT (converted)
T1 construct: comprising amino acids Leu23-Arg303 according to UniProt entry Q03405.1; purchased R&D Systems 10378-UK-100
Outline: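 uPAR-Fc (Leu23-Arg303 extracellular domains, human IgG1 Fc) captured on Protein A chip to ~2000 RU; single-cycle kinetics at 25°C in HEPES running buffer pH 7.4 with 0.1% DMSO. KD from double-referenced sensorgrams fitted to 1:1 Langmuir model, reported as pKD.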

[2] = molecular target: T2, uPAR-expressing HEC-265 human endometrial adenocarcinoma cells (Homo sapiens, UniProt Q03405); experiment: Competitive FACS binding assay; details: pIC50 category of FACS binding
T2 construct: Cell surface uPAR-expressing HEC-265 human endometrial adenocarcinoma cells; host or cells: HEC-265
Outline: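 HEC-265 cells incubated 1 h at 4 °C with 10 nM biotinylated uPAR peptide tracer plus increasing test compound, then stained with APC-streptavidin on ice. Median APC fluorescence by flow cytometry; 4PL fit gives pIC50.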

T1 sequence (Q03405 23-303): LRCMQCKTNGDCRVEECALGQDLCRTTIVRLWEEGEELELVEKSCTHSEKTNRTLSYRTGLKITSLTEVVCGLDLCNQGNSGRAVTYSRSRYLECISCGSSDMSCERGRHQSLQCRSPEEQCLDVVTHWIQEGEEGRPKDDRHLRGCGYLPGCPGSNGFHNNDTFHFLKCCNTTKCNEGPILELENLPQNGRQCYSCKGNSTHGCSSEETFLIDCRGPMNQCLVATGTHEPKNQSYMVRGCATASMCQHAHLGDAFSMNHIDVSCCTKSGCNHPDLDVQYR
T2 sequence (Q03405 23-335): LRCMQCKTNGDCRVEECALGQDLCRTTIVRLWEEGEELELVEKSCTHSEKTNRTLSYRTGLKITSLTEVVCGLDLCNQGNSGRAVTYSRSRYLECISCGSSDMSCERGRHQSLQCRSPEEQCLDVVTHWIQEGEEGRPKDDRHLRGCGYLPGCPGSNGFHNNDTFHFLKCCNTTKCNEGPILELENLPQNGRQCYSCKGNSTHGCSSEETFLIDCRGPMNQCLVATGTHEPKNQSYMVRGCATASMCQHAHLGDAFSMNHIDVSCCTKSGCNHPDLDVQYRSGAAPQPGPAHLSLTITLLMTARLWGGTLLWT

Row | Compound | Kd [1] [nM] | IC50 [2] [nM] | Kd ([1]; single cycle kinetics) [nM] | pKD CAT [1] | pIC50 CAT [2]
1 | CCCCC(=O)N[C@H]1CSSC[C@@H](C(N)=O)NC(=O)[C@H](CCC)NC(=O)C2(CCCCC2)NC(=O)[C@@H]2C[C@@H](O)CN2C(=O)[C@@H]2CCCN2C(=O)[C@H](Cc2ccccc2)NC(=O)[C@H](Cc2ccc(O)cc2)NC(=O)[C@H](CCC(N)=O)NC(=O)[C@H](CCCNC(=N)N)NC1=O [UPAR-264, Pent-[Cys-Arg-Gln-Tyr-Phe-Pro-Hyp-Egz-Nva-Cys]-NH2] (Pentanoyl-CRQYFP[Hyp][Ac6c][Nva]C-NH2; disulfide 1-10) | < 1.58 | ≤ 10 | – | – | –
2 | CCCCC(=O)N[C@H]1CSSC[C@@H](C(N)=O)NC(=O)[C@H](CCC)NC(=O)[C@H]([C@@H](C)CC)NC(=O)C(C)(C)NC(=O)[C@@H]2CCCN2C(=O)[C@H](Cc2ccccc2)NC(=O)[C@H](Cc2ccc(O)cc2)NC(=O)[C@H](CCCCNC(=O)CN2CCN(CC(=O)O)CCN(CC(=O)O)CCN(CC(=O)O)CC2)NC(=O)[C@H](CCCNC(N)=O)NC1=O [UPAR-299, Pent-[Cys-Cit-Lys(DOTA)-Tyr-Phe-Pro-Aib-Ile-Nva-Cys]-NH2] (Pentanoyl-C[Cit]K(DOTA)YFP[Aib]I[Nva]C-NH2; disulfide 1-10) | < 1.58 | ≤ 10 | – | – | –
3 | CCCC(=O)N[C@H]1CSSC[C@@H](C(N)=O)NC(=O)[C@H](CC(C)C)NC(=O)[C@H]([C@@H](C)CC)NC(=O)[C@@H](C)NC(=O)[C@@H]2CCCN2C(=O)[C@H](Cc2ccccc2)NC(=O)[C@H](Cc2ccc(O)cc2)NC(=O)[C@H](CCC(N)=O)NC(=O)[C@H](CCCNC(N)=O)NC1=O [UPAR-139, But-[Cys-Cit-Gln-Tyr-Phe-Pro-ala-Ile-Leu-Cys]-NH2] (Butyryl-C[Cit]QYFP[dA]ILC-NH2; disulfide 1-10) | 1.58 to 10 | 12.6 to 31.6 | – | – | –
4 | CCCCC(=O)N[C@H]1CSSC[C@@H](C(N)=O)NC(=O)[C@H](CCC)NC(=O)[C@H](Cc2ccc(Cl)cc2)NC(=O)[C@@H]2C[C@@H](O)CN2C(=O)[C@@H]2CCCN2C(=O)[C@H](Cc2ccccc2)NC(=O)[C@H](Cc2ccc(O)cc2)NC(=O)[C@H](CCC(N)=O)NC(=O)[C@H](CCCNC(=N)N)NC1=O [UPAR-204, Pent-[Cys-Arg-Gln-Tyr-Phe-Pro-Hyp-Pcf-Nva-Cys]-NH2] (Pentanoyl-CRQYFP[Hyp][Phe(4-Cl)][Nva]C-NH2; disulfide 1-10) | < 1.58 | ≤ 10 | – | – | –
5 | CC[C@H](C)[C@@H]1NC(=O)[C@H](CCCNC(=N)N)NC(=O)[C@@H]2CCCN2C(=O)[C@H](Cc2ccccc2)NC(=O)[C@H](Cc2ccc(O)cc2)NC(=O)[C@H](CCCCNC(=O)CN2CCN(CC(=O)O)CCN(CC(=O)O)CCN(CC(=O)O)CC2)NC(=O)[C@H](CCCNC(N)=O)NC(=O)[C@@H](NC(=O)[C@H](CC(C)C)NC(=O)[C@H](CC(=O)O)NC(C)=O)CSSC[C@@H](C(N)=O)NC(=O)[C@H](CC(C)C)NC1=O [UPAR-423, Ac-Asp-Leu-[Cys-Cit-Lys(DOTA)-Tyr-Phe-Pro-Arg-Ile-Leu-Cys]-NH2] (Ac-DLC[Cit]K(DOTA)YFPRILC-NH2; disulfide 3-12) | – | ≤ 10 | < 1.58 | – | –
6 | CCCCOC(=O)N[C@H]1CSSC[C@@H](C(N)=O)NC(=O)[C@H](CCC)NC(=O)[C@H]([C@@H](C)CC)NC(=O)[C@@H]2C[C@@H](O)CN2C(=O)[C@@H]2C[C@H](F)CN2C(=O)[C@H](Cc2ccccc2)NC(=O)[C@H](Cc2ccc(O)cc2)NC(=O)[C@H](CCCCNC(=O)CN2CCN(C(=O)CN3CCN(CC(=O)O)CCN(CC(=O)O)CCN(CC(=O)O)CC3)CC2)NC(=O)[C@H]([C@@H](C)O)NC1=O [UPAR-181, Butoc-[Cys-Thr-Lys(DOTA-PPAc)-Tyr-Phe-4Cfp-Hyp-Ile-Nva-Cys]-NH2] (Butoxycarbonyl-CTK(Acetyl(4-DOTA-piperazinyl))YF[Pro(cis-4-F)][Hyp]I[Nva]C-NH2; disulfide 1-10) | < 1.58 | ≤ 10 | – | – | –
7 | CCCCC(=O)N[C@H]1CSSC[C@@H](C(N)=O)NC(=O)[C@H](Cc2ccccc2)NC(=O)[C@H]([C@@H](C)CC)NC(=O)[C@@H]2C[C@@H](O)CN2C(=O)[C@@H]2CCCN2C(=O)[C@H](Cc2ccccc2)NC(=O)[C@H](Cc2ccc(O)cc2)NC(=O)[C@H](CCC(N)=O)NC(=O)[C@H](CCCNC(=N)N)NC1=O [UPAR-171, Pent-[Cys-Arg-Gln-Tyr-Phe-Pro-Hyp-Ile-Phe-Cys]-NH2] (Pentanoyl-CRQYFP[Hyp]IFC-NH2; disulfide 1-10) | 1.58 to 10 | 12.6 to 31.6 | – | – | –
8 | CCCCC(=O)N[C@H]1CSSC[C@@H](C(N)=O)NC(=O)[C@H](CCC)NC(=O)[C@H]([C@@H](C)CC)NC(=O)[C@@H]2C[C@@H](O)CN2C(=O)[C@@H]2CCCN2C(=O)[C@H](Cc2ccccc2)NC(=O)[C@H](CC(C)C)NC(=O)[C@H](CCC(N)=O)NC(=O)[C@H](CCCNC(=N)N)NC1=O [UPAR-195, Pent-[Cys-Arg-Gln-Leu-Phe-Pro-Hyp-Ile-Nva-Cys]-NH2] (Pentanoyl-CRQLFP[Hyp]I[Nva]C-NH2; disulfide 1-10) | 1.58 to 10 | 12.6 to 31.6 | – | – | –
9 | CC(C)CCC(=O)N[C@H]1CSSC[C@@H](C(N)=O)NC(=O)[C@H](CC(C)C)NC(=O)[C@H](C2CCCCC2)NC(=O)[C@@H](C)NC(=O)[C@@H]2CCCN2C(=O)[C@H](Cc2ccccc2)NC(=O)[C@H](Cc2ccc(O)cc2)NC(=O)[C@H](CCC(N)=O)NC(=O)[C@H](CCCNC(N)=O)NC1=O [UPAR-225, iHex-[Cys-Cit-Gln-Tyr-Phe-Pro-ala-Chg-Leu-Cys]-NH2] ({Pentanoyl(4-Me)}-C[Cit]QYFP[dA][Chg]LC-NH2; disulfide 1-10) | < 1.58 | ≤ 10 | – | – | –
10 | Pent-[Cys-Cit-Lys(InDOTA)-Tyr-Mpa-Pro-Hyp-Ile-Nva-Cys]-NH2 [UPAR-331] | – | – | – | A (pKD values ≥ 8.8) | A (pIC50 values ≥8.0)

More lines, now with the values ahead:

Row | Kd [1] [nM] | IC50 [2] [nM] | Kd ([1]; single cycle kinetics) [nM] | pKD CAT [1] | pIC50 CAT [2] | Compound
11 | – | ≤ 10 | < 1.58 | – | – | CCCCC(=O)N[C@H]1CSSC[C@@H](C(N)=O)NC(=O)[C@H](CC(C)C)NC(=O)[C@H]([C@@H](C)CC)NC(=O)[C@@H](C)NC(=O)[C@@H]2CCCN2C(=O)[C@H](Cc2ccccc2)NC(=O)[C@H](Cc2ccc(O)cc2)NC(=O)[C@H](CCC(N)=O)NC(=O)[C@H](CCCNC(N)=O)NC1=O [UPAR-362, Pent-[Cys-Cit-Gln-Tyr-Phe-Pro-ala-Ile-Leu-Cys]-NH2] (Pentanoyl-C[Cit]QYFP[dA]ILC-NH2; disulfide 1-10)
12 | – | ≤ 10 | 1.58 to 10 | – | – | CC[C@H](C)[C@@H]1NC(=O)[C@@H](C)NC(=O)[C@@H]2CCCN2C(=O)[C@H](Cc2ccccc2)NC(=O)[C@H](Cc2ccc(O)cc2)NC(=O)[C@H](CCC(N)=O)NC(=O)C(C)(C)NC(=O)[C@@H](NC(=O)CCC(C)C)CSSC[C@@H](C(N)=O)NC(=O)[C@H](CC(C)C)NC1=O [UPAR-468, iHex-[Cys-Aib-Gln-Tyr-Phe-Pro-ala-Ile-Leu-Cys]-NH2] ({Pentanoyl(4-Me)}-C[Aib]QYFP[dA]ILC-NH2; disulfide 1-10)
13 | – | – | – | A (pKD values ≥ 8.8) | A (pIC50 values ≥8.0) | Pent-[Cys-Cit-Lys(InDOTA)-Tyr-Phe-Pro-Hyp-Ile-Nva-Cys]-NH2 (Pentanoyl-C[Cit]K(DOTA(In))YFP[Hyp]I[Nva]C-NH2; disulfide 1-10; not fully specified; also: In(III) complexed by DOTA) [UPAR-182]
14 | – | ≤ 10 | < 1.58 | – | – | CCC[C@@H]1NC(=O)[C@H]([C@@H](C)CC)NC(=O)[C@@H]2C[C@@H](O)CN2C(=O)[C@@H]2CCCN2C(=O)[C@H](Cc2ccccc2)NC(=O)[C@H](Cc2ccc(O)cc2)NC(=O)[C@H](CCC(N)=O)NC(=O)[C@H](CCCNC(=N)N)NC(=O)[C@@H](NC(=O)[C@](C)(CC(C)C)NC(C)=O)CSSC[C@@H](C(N)=O)NC1=O [UPAR-485, Ac-Aml-[Cys-Arg-Gln-Tyr-Phe-Pro-Hyp-Ile-Nva-Cys]-NH2] (Ac-[αMeL]CRQYFP[Hyp]I[Nva]C-NH2; disulfide 2-11)
15 | – | ≤ 10 | < 1.58 | – | – | CC[C@H](C)[C@@H]1NC(=O)[C@@H](C)NC(=O)[C@@H]2CCCN2C(=O)[C@H](Cc2ccccc2)NC(=O)[C@H](Cc2cccnc2)NC(=O)[C@H](CCC(N)=O)NC(=O)[C@H](CCCNC(N)=O)NC(=O)[C@@H](NC(=O)CCC(C)C)CSSC[C@@H](C(N)=O)NC(=O)[C@H](CC(C)C)NC1=O [UPAR-393, iHex-[Cys-Cit-Gln-Mpa-Phe-Pro-ala-Ile-Leu-Cys]-NH2] ({Pentanoyl(4-Me)}-C[Cit]Q[3Pal]FP[dA]ILC-NH2; disulfide 1-10)
16 | – | ≤ 10 | < 1.58 | – | – | CC[C@H](C)[C@@H]1NC(=O)[C@@H]2C[C@@H](O)CN2C(=O)[C@@H]2CCCN2C(=O)[C@H](Cc2ccccc2)NC(=O)[C@H](Cc2ccc(O)cc2)NC(=O)[C@H](CC(=O)O)NC(=O)[C@H](CCCNC(N)=O)NC(=O)[C@@H](NC(=O)CCC(C)C)CSSC[C@@H](C(N)=O)NC(=O)[C@H](CC(C)C)NC1=O [UPAR-410, iHex-[Cys-Cit-Asp-Tyr-Phe-Pro-Hyp-Ile-Leu-Cys]-NHz] ({Pentanoyl(4-Me)}-C[Cit]DYFP[Hyp]ILC-NH2; disulfide 1-10)
17 | < 1.58 | ≤ 10 | – | – | – | CCCCC(=O)N[C@H]1CSSC[C@@H](C(N)=O)NC(=O)[C@H](CCC)NC(=O)[C@H]([C@@H](C)CC)NC(=O)[C@@H]2C[C@H](N)CN2C(=O)[C@@H]2CCCN2C(=O)[C@H](Cc2ccccc2)NC(=O)[C@H](Cc2ccc(O)cc2)NC(=O)[C@H](CCCCNC(=O)CN2CCN(CC(=O)O)CCN(CC(=O)O)CCN(CC(=O)O)CC2)NC(=O)[C@H](CCCNC(N)=O)NC1=O [UPAR-325, Pent-[Cys-Cit-Lys(DOTA)-Tyr-Phe-Pro-4Ap-Ile-Nva-Cys]-NH2] (Pentanoyl-C[Cit]K(DOTA)YFP[Pro(4S-NH2)]I[Nva]C-NH2; disulfide 1-10)
